Tested on: cysteine protease
Assay: Cysteine protease activity of midgut from larvae treated 24 h (in vivo)
Parameters: species or system Rhynchophorus ferrugineus
Details: midgut of fourth instar larvae treated for 24 h
Description: The activity of cysteine proteinase was determined in the fourth midgut instar larval homogenate of R. ferrugineus using the substrate Z-Phe-Arg-MNA [1]. […] The reaction was centrifuged (at 5000 rpm, 6 min), then the absorbance was determined (at 520 nm). The activity of cysteine proteinase was measured using an ELISA quick plate reader at the OD520/60 min/mg of midgut protein. […]
As a control, an assay combination devoid of inhibitors was utilized. The absorbance of the enzymes was determined using an ELISA plate quick reader at various wavelengths. The percentage activity of the control enzyme for each inhibitor was evaluated for each enzyme. Protease activity was assayed in vivo in the R. ferrugineus fourth midgut larval instars, which were treated with 1, 10, 50, 100, 500, 1000, and 5000 mg/L of extracts or compounds, measured as described above. […]

C[C@@H]1O[C@@H](OC[C@H]2O[C@@H](Oc3c(-c4ccc(O)c(O)c4)oc4cc(O)cc(O)c4c3=O)[C@H](O)[C@@H](O)[C@@H]2O)[C@H](O)[C@H](O)[C@H]1O [Quercetin-3-O-rutinoside]
IC50 against cysteine protease (in vivo): 746.6 µg/mL

— article PMC9027599, “Secondary Metabolites in Basil, Bio-Insecticide, Inhibition Effect, and In Silico Molecular Docking against Proteolytic Enzymes of the Red Palm Weevil (Rhynchophorus ferrugineus)” (Plants, 2022)
